Series [1] deals with IGROV-1/CDDP (ovary, cisplatin-resistant cell line). The series is described as follows: MTT cell survival assay, 96 h treatment (Example 1). In kind it is cell-based, human. The following applies: for IC50: IGROV-1/CDDP cisplatin-resistant cells, MTT, 96 h, mean of four measurements; for resistance index of IGROV-1/CDDP compared to parental IGROV-1 cell line: approximate; for Resistance Index of IGROV-1/CDDP versus IGROV-1 cell line: ratio of IC50 IGROV-1/CDDP to IGROV-1. The procedure:
(§1) Effects of a treatment with increasing concentrations of a conjugate molecule of the invention (Cisplatin-D-TAT) and an unconjugated anti-cancer drug (Cisplatin) on the survival of IGROV-1 (ovary), IGROV-1/CDDP (ovary, cisplatin-resistant cell line), MCF-7 (breast), and MRC-5 (human fibroblast) (three human tumor cell lines and one human fibroblast cell line) was determined. Cells of each cell line were plated out (200 μl final volume of RPMI 1640 supplemeted with 10% FBS) in 96 well plates (5 different concentrations for each test substance, one control experiment) 5,000 to 40,000 cells per well (depending on the doubling time for each cell line) were incubated at 37° C. for 24 h before treatment with the test substances. Each experiment was carried 4×. Cell incubation after treatment was performed for 96 h at 37° C. The effects of Cisplatin-D-TAT and Cisplatin on the survival of these cell lines (in vitro cytotoxic activity) were measured by using an MTT assay. 20 μl of a 5 mg/ml solution 0.22 μl filtered tetrazolium reagent (MTT, Ref. M2003, Sigma) in Phosphate Buffered Saline (PBS, Ref BE17-517Q, Cambrex) were aded in each well. Culture plates were incubated for 4 h at 37° C. The resulting supernatant was removed and formazan crystals were dissolved with 200 μl of DMSO per well. Absorbancy (OD) was determined in each well on a single wavelength spectrophotometer plate reader at 570 nm (Multiskan, Labsystem, Helsinki, Finland) Data were collected with Genesis software (Labsystem, Helsinki, Finland). IC50 (concentration of the drug inhibiting 50% of the cell growth) for the test substances was calculated for each cell line after plotting. Control cells were treated with vehicle.

Another series deals with MCF-7 (breast). Described as above. The series is classed as cell-based, human. Particulars: MCF-7 cells. The procedure:
as §1

In another series the test system is IGROV-1 (ovary). Described as above. In kind it is cell-based, human. Particulars: IGROV-1 cells, mean of four measurements. The procedure:
as §1

In series [2] the test system is MCF-7 (human breast adenocarcinoma cell line). As to the kind of experiment: cells. The series is classed as cell-based. The procedure:
(§2) Effects of a treatment with increasing concentrations of a conjugate molecule of the invention (D-Tat-chlorambucil) on the survival of MCF-7 (human breast adenocarcinoma cell line) and SiHa (humon cervix squamous carcinoma cell line) was determined. The effects of D-Tat-chlorambucil was compared to the conjugate L-Tat-chlorambucil and to two unconjugated anti-cancer drugs (Chlorambucil and Cisplatin). Cells of each cell line (10′000 cells per well) were plated into 96 well plates (200 μtotal volume of MEM supplemented with 10% FBS, 1% L-glutamine, 1% Na-pyruvate, 1% non-essential amino acids for MCF-7 and of MEM/Earle's supplemented with 10% FBS, 1% Na-pyruvate, 1% non-essential amino acids for SiHa cells). 6 to 10 different concentrations for each test substance were tested. The control cells are non-treated. Cells were incubated at 37° C. for 24 h before treatment with the test substance. Each experiment was carried in triplicate. Cell incubation after treatment was performed for 96 hours at 37° C. The effects of the test molecules on the survival of these cell lines (in vitro cytotoxic activity) was measured by the MTT assay. 20 μl of a 5 mg/ml 0.22 μm filtered Thiazolyl Blue Tetrazolium Bromide solution (MTT, Sigma, Ref. No. 88415) in Phosphate Buffered saline (PBS, CHUV) were added to each well and the plate was incubated for 4 hours at 37° C. The supernatant was removed and formazan crystals were dissolved with DMSO (200 μl per well). Absorbancy (OD) was measured in a microplate reader at 595 nm
(§3) (Expert Plus Reader, Asys Hitech). The IC50 (concentration of the drug inhibiting 50% of the cell growth) for the test substances was calculated using Prism software.

Series [3] shares this test system. As to the kind of experiment: MTT cell survival assay, 96 h treatment (Example 2, oxaliplatin conjugates). In kind it is cell-based. The following applies: MCF-7 cells, Example 2, triplicate. The procedure:
(§4) Effects of a treatment with increasing concentrations of a conjugate molecule of the invention (D-Tat-oxaliplatin) on the survival of MCF-7 (human breast adenocarcinoma cell line) and SiHa (human cervix squamous carcinoma cell line) was determined. The effects of D-Tat-oxaliplatin was compared to the conjugate L-Tat-oxaliplatin and to two unconjugated anti-cancer drugs (Oxaliplatin and Cisplatin). Cells of each cell line (10′000 cells per well) were plated into 96 well plates (200 μl total volume of MEM supplemented with 10% FBS, 1% L-glutamine, 1% Na-pyruvate, 1% non-essential amino acids for MCF-7 and of MEM/Earle's supplemented with 10% FBS, 1% Na-pyruvate, 1% non-essential amino acids for SiHa cells). 6 to10 different concentrations for each test substance were tested. The control cells are non-treated. Cells were incubated at 37° C. for 24 h before treatment with the test substance. Each experiment was carried in triplicate. Cell incubation after treatment was performed for 96 hours at 37° C. The effects of the test molecules on the survival of these cell lines (in vitro cytotoxic activity) was measured by the MTT assay. 20 μl of a 5 mg/ml 0.22 μm filtered Thiazolyl Blue Tetrazolium Bromide solution (MTT, Sigma, Ref. No. 88415) in Phosphate Buffered saline (PBS, CHUV) were added to each well and the plate was incubated for 4 hours at 37° C. The supernatant was removed and formazan crystals were dissolved with DMSO (200 μl per well). Absorbancy (OD) was measured in a microplate reader at 595 nm (Expert Plus Reader, Asys Hitech). The IC50 (concentration of the drug inhibiting 50% of the cell growth) for the test substances was calculated using Prism software.

The subject of series [4] is SiHa (human cervix squamous carcinoma cell line). The description is as above. The following applies: SiHa cells, Example 2, triplicate. The series is classed as cell-based. The procedure: as §4
The subject of a further series is MRC-5 (human fibroblast). The series is described as follows: MTT cell survival assay, 96 h treatment (Example 1). In kind it is cell-based. The following applies: MRC-5 fibroblast cells. The procedure:
as §1, with “Culture plates were incubated for 4 h at 37° C. The resulting supernatant was removed and formazan crystals were dissolved with 200 μl of DMSO per well.” left out, “IC50 (concentration of the drug inhibiting 50% of the cell growth) for the test substances was calculated for each cell line after plotting. Control cells were treated with vehicle.” left out

For series [5], the system named is SiHa (humon cervix squamous carcinoma cell line). As to the kind of experiment: cells. The series is classed as cell-based, human. The procedure:
as §2, §3

Series [6] can be described thus: Octanol/water partition (shake-flask, HPLC at 214 nm), water solubility. Particulars: 1 mM, 24 hours equilibration at room temperature, FIG. 10.

Several values for one entry are separate records, joined by “and”; a condition that tells them apart may be missing. Equal values may be shown once. Read-outs that look alike come from different tables or passages of the source. Square brackets hold non-standard residues; d marks the D form.

With `N.N.[Cl][Pt][Cl]` [Cisplatin, cis-diamindichloroplatin (II)], the half-inhibitory concentration (IC50) in series [1] was 52.3 µM; with MCF-7 (breast), 2.68 µM; in the series with IGROV-1 (ovary), 1.2 µM; in series [2] (MCF-7 cells, MTT, 96 h, Example 3, triplicate, read-out: IC50) it was 7 µM and 7.96 µM; in series [3], 9.1 µM; in series [4] it was 11.1 µM. Also, the 50% inhibitory concentration (IC50) with MRC-5 (human fibroblast) was 4.88 µM; in [5] (SiHa cells, MTT, 96 h, Example 3, triplicate, read-out: IC50), 7 µM and 7.03 µM. Moreover, the “resistance index of IGROV-1/CDDP compared to parental IGROV-1 cell line” value in series [1] is recorded as “approximately 40 fold”. Moreover, the “Resistance Index of IGROV-1/CDDP versus IGROV-1 cell line” value in [1] stood at 43.6.

In the case of `O=C(O)CCCc1ccc(N(CCCl)CCCl)cc1` [chlorambucil], the half-maximal inhibitory concentration (IC50) in series [2] (Homo sapiens, MCF7) was > 1000 µM; in series [2] (Homo sapiens, MCF7, 96 h) it was > 1000 µM; in series [5] (Homo sapiens, SiHa), > 1000 µM; in series [5] (Homo sapiens, SiHa, 96 h), > 1000 µM. The “water solubility (compound partitioned in water, octanol/water)” value in series [6] is “very low water solubility”.

Consider `COc1cccc2c1C(=O)c1c(O)c3c(c(O)c1C2=O)C[C@@](O)(C(=O)CO)C[C@@H]3O[C@H]1C[C@H](N)[C@H](O)[C@H](C)O1` [doxorubicine], for which the “water solubility (compound partitioned in water, octanol/water)” value in series [6] was “almost perfectly soluble in water”.

Consider `O=C(O)C(=O)O.[NH-][C@@H]1CCCC[C@H]1[NH-].[Pt+2]` [oxaliplatin], for which the concentration for half-maximal inhibition (IC50) in [3] is 1.5 µM; in series [4] it was 11.1 µM.

Turning to `CC(C)(C)NC(=O)[C@@H]1C[C@@H]2CCCC[C@@H]2CN1C[C@@H](O)[C@H](Cc1ccccc1)NC(=O)[C@H](CC(N)=O)NC(=O)c1ccc2ccccc2n1` [saquinavir], the “water solubility (compound partitioned in water, octanol/water)” value in series [6] is listed as “only partially soluble in water”.

On to “Cisplatin-D-TAT (H-[dM]GG[dR][dR][dR][dQ][dR][dR][dK][dK][dR]-NH2; also: cisplatin conjugate)”, for which the half-inhibitory concentration (IC50) in series [1] is 35.3 µM; in the series with MCF-7 (breast), 4.89 µM; with IGROV-1 (ovary) it was 18.4 µM; in the series with MRC-5 (human fibroblast), 20.6 µM. The “resistance index of IGROV-1/CDDP compared to parental IGROV-1 cell line” value in series [1] is recorded as “approximately two”. Further, in series [1], the “Resistance Index of IGROV-1/CDDP versus IGROV-1 cell line” value came out at 1.9.

Source of the values: patent US20100256041A1, “Conjugate Molecule Compounds With Enhanced Cell Uptake Activity” (priority 2004, published 2010).
